pIC50: −log10 of the molar value. Bridge positions count the residues as written; N and C are the ends. Peptide text beside a SMILES is read from it.
What was measured:
calcitonin receptor = target: T1, calcitonin receptor (Rattus norvegicus, UniProt P32214); assay: calcitonin receptor binding assay (rCalcitonin RBA); details: Table 6; read-out: CT receptor binding
T1 sequence (P32214 25-516): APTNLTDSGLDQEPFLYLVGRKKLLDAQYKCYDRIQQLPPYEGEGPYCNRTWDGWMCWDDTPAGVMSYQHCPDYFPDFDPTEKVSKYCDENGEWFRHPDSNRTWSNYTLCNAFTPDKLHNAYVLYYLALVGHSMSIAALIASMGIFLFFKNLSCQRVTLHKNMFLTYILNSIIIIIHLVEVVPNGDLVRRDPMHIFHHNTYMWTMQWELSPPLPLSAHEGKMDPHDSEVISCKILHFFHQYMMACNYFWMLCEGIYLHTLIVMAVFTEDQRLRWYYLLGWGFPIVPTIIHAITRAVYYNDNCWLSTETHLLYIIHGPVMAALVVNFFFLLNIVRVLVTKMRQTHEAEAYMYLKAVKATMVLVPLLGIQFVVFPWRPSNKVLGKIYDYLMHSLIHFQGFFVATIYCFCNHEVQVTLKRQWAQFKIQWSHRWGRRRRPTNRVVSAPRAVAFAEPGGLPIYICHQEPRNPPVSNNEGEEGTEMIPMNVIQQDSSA

adrenomedullin receptor = adrenomedullin receptor (Homo sapiens, UniProt O60895+Q16602); assay: adrenomedullin (ADM) receptor binding assay; details: Table 6
Chain of adrenomedullin receptor (Q16602 23-461): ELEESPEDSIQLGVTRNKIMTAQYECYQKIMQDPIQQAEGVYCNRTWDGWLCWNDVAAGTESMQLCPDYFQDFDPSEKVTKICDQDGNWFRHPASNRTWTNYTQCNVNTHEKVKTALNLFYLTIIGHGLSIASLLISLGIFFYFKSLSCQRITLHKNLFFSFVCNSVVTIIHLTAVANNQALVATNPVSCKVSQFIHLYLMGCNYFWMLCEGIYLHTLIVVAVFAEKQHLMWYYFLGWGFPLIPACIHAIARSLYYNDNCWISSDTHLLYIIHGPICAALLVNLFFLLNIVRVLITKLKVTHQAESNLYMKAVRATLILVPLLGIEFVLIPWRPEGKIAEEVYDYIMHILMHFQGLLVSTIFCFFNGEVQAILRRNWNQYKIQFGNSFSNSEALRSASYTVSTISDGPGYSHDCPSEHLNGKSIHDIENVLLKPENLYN
Chain of adrenomedullin receptor (O60895 43-175): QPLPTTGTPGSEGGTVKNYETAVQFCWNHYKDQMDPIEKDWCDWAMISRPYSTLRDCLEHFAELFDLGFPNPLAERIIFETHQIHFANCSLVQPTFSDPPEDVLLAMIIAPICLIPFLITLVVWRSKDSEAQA

Row | pIC50 (calcitonin receptor) | pIC50 (adrenomedullin receptor) | Molecule
1 | 8.05 | ≤ 6.00 | CC(C)C[C@@H]1NC(=O)[C@H](CC(N)=O)NC(=O)CNC(=O)[C@@H](NC(=O)CNC(=O)[C@@H](N)C(C)C)CSSC[C@@H](C(=O)N[C@@H](CCC(N)=O)C(=O)N[C@H](C(=O)N[C@@H](CCC(N)=O)C(=O)N[C@@H](CC(N)=O)C(=O)N[C@@H](CC(C)C)C(=O)N[C@@H](CO)C(=O)N[C@@H](Cc2c[nH]cn2)C(=O)N[C@@H](CCCNC(=N)N)C(=O)N[C@@H](CC(C)C)C(=O)N[C@@H](Cc2c[nH]c3ccccc23)C(=O)N[C@@H](CCC(N)=O)C(=O)N[C@@H](CC(C)C)C(=O)N[C@@H](CCCNC(=N)N)C(=O)N[C@@H](CCC(N)=O)C(=O)N[C@@H](CC(=O)O)C(=O)N[C@@H](CO)C(=O)N[C@@H](C)C(=O)N2CCC[C@H]2C(=O)N[C@H](C(=O)N[C@@H](CC(=O)O)C(=O)N2CCC[C@H]2C(=O)N[C@@H](CO)C(=O)N[C@@H](CO)C(=O)N2CCC[C@H]2C(=O)N[C@@H](Cc2c[nH]cn2)C(=O)N[C@@H](CO)C(=O)N[C@@H](Cc2ccc(O)cc2)C(N)=O)C(C)C)C(C)C)NC(=O)[C@H]([C@@H](C)O)NC(=O)[C@H](CO)NC1=O [compound 29] (H-VGCGNLSTCQVQNLSHRLWQLRQDSAPVDPSSPHSY-NH2; disulfide 3-9 (inferred))
2 | < 6.00 | 7.43 | H-GMVLGTMQVQNLSHRLWQLMGPAGRQDSAPVDPSSPHSY-NH2 [compound 26]
3 | < 6.00 | 6.92 | H-TQAQLLRVGMVLGTMQVQNLSHRLWQLMGPAGRQDSAPVDPSSPHSY-NH2 [compound 25]

The remaining lines, values behind:

Row | Molecule | pIC50 (calcitonin receptor) | pIC50 (adrenomedullin receptor)
4 | CC(C)C[C@H](NC(=O)[C@H](CCC(N)=O)NC(=O)[C@H](Cc1c[nH]c2ccccc12)NC(=O)[C@H](CC(C)C)NC(=O)[C@H](CCCNC(=N)N)NC(=O)[C@H](Cc1c[nH]cn1)NC(=O)[C@H](CO)NC(=O)[C@H](CC(C)C)NC(=O)[C@H](CC(N)=O)NC(=O)[C@H](CCC(N)=O)NC(=O)[C@@H](NC(=O)[C@H](CCC(N)=O)NC(=O)[C@@H]1CSSC[C@H](NC(=O)CNC(=O)[C@@H](N)C(C)C)C(=O)N[C@@H](C(C)C)C(=O)N[C@@H](CC(C)C)C(=O)NCC(=O)N[C@@H]([C@@H](C)O)C(=O)N1)C(C)C)C(=O)N[C@@H](CCCNC(=N)N)C(=O)N[C@@H](CCC(N)=O)C(=O)N[C@@H](CC(=O)O)C(=O)N[C@@H](CO)C(=O)N[C@@H](C)C(=O)N1CCC[C@H]1C(=O)N[C@H](C(=O)N[C@@H](CC(=O)O)C(=O)N1CCC[C@H]1C(=O)N[C@@H](CO)C(=O)N[C@@H](CO)C(=O)N1CCC[C@H]1C(=O)N[C@@H](Cc1c[nH]cn1)C(=O)N[C@@H](CO)C(=O)N[C@@H](Cc1ccc(O)cc1)C(N)=O)C(C)C [compound 18] (H-VGCVLGTCQVQNLSHRLWQLRQDSAPVDPSSPHSY-NH2; disulfide 3-8 (inferred); N-terminus assumed) | 7.62 | ≤ 6.00
5 | CC(C)C[C@H](NC(=O)[C@H](CCC(N)=O)NC(=O)[C@H](Cc1c[nH]c2ccccc12)NC(=O)[C@H](CC(C)C)NC(=O)[C@H](CCCNC(=N)N)NC(=O)[C@H](Cc1c[nH]cn1)NC(=O)[C@H](CO)NC(=O)[C@H](CC(C)C)NC(=O)[C@H](CC(N)=O)NC(=O)[C@H](CCC(N)=O)NC(=O)[C@@H](NC(=O)[C@H](CCC(N)=O)NC(=O)[C@@H]1CSSC[C@H](N)C(=O)N[C@@H](C(C)C)C(=O)N[C@@H](CC(C)C)C(=O)NCC(=O)N[C@@H]([C@@H](C)O)C(=O)N1)C(C)C)C(=O)N[C@@H](CCCNC(=N)N)C(=O)N[C@@H](CCC(N)=O)C(=O)N[C@@H](CCC(=O)O)C(=O)N[C@@H](CO)C(=O)N[C@@H](C)C(=O)N1CCC[C@H]1C(=O)N[C@H](C(=O)N[C@@H](CCC(=O)O)C(=O)N1CCC[C@H]1C(=O)N[C@@H](CO)C(=O)N[C@@H](CO)C(=O)N1CCC[C@H]1C(=O)N[C@@H](Cc1c[nH]cn1)C(=O)N[C@@H](CO)C(=O)N[C@@H](Cc1ccc(O)cc1)C(N)=O)C(C)C [compound 19] (H-CVLGTCQVQNLSHRLWQLRQESAPVEPSSPHSY-NH2; disulfide 1-6 (inferred); N-terminus assumed) | 6.61 | ≤ 6.00
6 | H-TQAQLLRVGCSNLSTCQVQNLSHRLWQLMGPAGRQDSAPVDPSSPHSY-NH2 (disulfide 10-16 (inferred)) [compound 20] | 7.80 | 7.44
